Experiments:
[1] = Rat fecal excretion and metabolite profiles after single oral 5 mg/kg [14C]DCDQ; format: in vivo, Sprague-Dawley rats; details: male rats
Protocol: At sacrifice, blood samples were collected by cardiac puncture into tubes containing EDTA as the anticoagulant and placing them on ice. Aliquots of 50 μL were removed for combustion and determination of radioactivity content. Plasma was immediately obtained from the remaining blood by centrifugation at 4° C. Brains were excised after perfusion with 50 mL of chilled sterile saline. Urine samples were collected on dry ice at intervals of 0-8 and 8-24 hour post-dosing. Feces were collected at intervals of 0-8 and 8-24 hr post-dosing at room temperature and were homogenized as described previously. The biological specimens and aliquots of the dosing solution at pre- and post-dose were stored at approximately −70° C. until analyzed.
Brain and fecal samples were weighed and homogenized in water at volume-to-weight ratios of about 1:1 and 5:1, respectively. Blood aliquots (50 μL), brain homogenates (0.1 gram) and fecal homogenates (0.2 gram) were placed on Combusto-cones with Combusto-pads and combusted. A model 307 Tri-Carb Sample Oxidizer, equipped with an Oximate-80 Robotic Automatic Sampler (Perkin Elmer), was used for combustion. The liberated ^14CO2 was trapped with Carbo-Sorb E carbon dioxide absorber, mixed with PermaFluor® E+ liquid scintillation cocktail, and counted in a Tri-Carb Model 3100 TR/LL liquid scintillation counter (Perkin Elmer). The oxidation efficiency of the oxidizer was 98.2%.
Fecal homogenates were analyzed for metabolite profiles. Aliquots of 1 gram of fecal homogenates were mixed with 2 mL methanol, placed on ice for about 10 minutes and centrifuged. The supernatant was transferred to a clean tube. The residue was extracted three times with 2 mL of a water:methanol (3:7) mixture. The supernatants of each sample were combined, evaporated to about 1 mL, and centrifuged. Extraction efficiency was determined by analyzing aliquots of 10 μL of the supernatant for radioactivity. An aliquot (50-200 μL) of the supernatant was analyzed by HPLC with radioactivity flow detection for profiling. Samples were also analyzed by LC/MS to characterize the radioactive peaks.
A Waters model 2690 HPLC system (Waters Corp., Milford, Mass.) with a built-in autosampler was used for analysis. Separations were accomplished on a Phenomenex Luna C18(2) column (150×2.0 mm, 5 μm) (Phenomenex, Torrance, Calif.). The sample chamber of the autosampler was maintained at 4° C., while the column was at ambient temperature of about 20° C. A variable wavelength UV detector set to monitor 250 nm and a Flo-One β Model A525 radioactivity detector described above were used for data acquisition. The HPLC mobile phase consisted of 10 mM ammonium acetate, pH 4.5 (A) and methanol (B), and was delivered at 0.2 mL/min. […]

5-HT2C = target: T1, 5-HT2C (Homo sapiens, UniProt P28335); details: see WO03/091250 and US2004/0009970; cited from earlier work
T1 sequence (P28335 33-458): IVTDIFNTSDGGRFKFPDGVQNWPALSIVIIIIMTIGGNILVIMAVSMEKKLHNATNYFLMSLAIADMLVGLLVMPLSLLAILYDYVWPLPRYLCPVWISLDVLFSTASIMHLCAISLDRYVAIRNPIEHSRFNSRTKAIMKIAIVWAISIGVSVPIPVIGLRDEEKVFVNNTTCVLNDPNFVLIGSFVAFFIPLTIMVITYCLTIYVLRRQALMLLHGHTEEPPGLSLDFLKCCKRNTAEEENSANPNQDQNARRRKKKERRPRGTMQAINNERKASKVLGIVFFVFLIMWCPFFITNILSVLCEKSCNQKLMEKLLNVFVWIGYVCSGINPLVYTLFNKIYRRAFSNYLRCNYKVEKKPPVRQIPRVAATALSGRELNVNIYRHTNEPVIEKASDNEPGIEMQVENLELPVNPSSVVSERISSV

[2] = Incubation of [14C]DCDQ in rat fecal homogenate (stability); format: in vitro ADME; details: 37° C. for 24 hours
Protocol: Fecal elimination accounted for 21.1±2.1% of the dosed radioactivity recovered in the first 24 hours post-dosing for male rats. Extraction efficiency for the 8-24 hour fecal samples was 64.3%, while an average of 89.5% of the radioactivity was extracted from incubations of [^14C]DCDQ in control fecal homogenate. […] Metabolite profiles were not obtained from the 0-8 hour fecal samples because of low radioactivity (less than 0.1% of dosed radioactivity).

[3] = Incubation of [14C]DCDQ in dog fecal homogenate (stability); format: in vitro ADME; details: 37° C. for 24 hours
Protocol: An average of 70.2% of the fecal radioactivity was extracted, while an average of 88.2% of the radioactivity was extracted from incubations of [^14C]DCDQ in blank fecal homogenate. In fecal extracts, DCDQ was major radioactive component, representing 54.4% to 96.7% of the total radioactivity. The metabolites detected in feces included hydroxy DCDQ (M2, M3 and M19), a keto DCDQ ([…]) and an uncharacterized peak (M20). The most abundant metabolite […] represented up to 16.4% of the total radioactivity in fecal extracts. The glucuronide of hydroxy DCDQ (M9) and the carbamoyl glucuronide of DCDQ (M6) were not detected in feces.

[4] = rats, previous mass balance study, oral dose; cited from earlier work

| SMILES | relative abundance in fecal extracts ([1]; 8-24 hour fecal extracts) | 5-HT2C agonist activity (5-HT2C) | dosed radioactivity in feces ([1]; 0-8 hour fecal samples) | dosed radioactivity recovered in feces ([1]; first 24 hours post-dosing) | degradation in fecal homogenate [2] | degradation in fecal homogenate [3] | dosed radioactivity recovered in urine [4] |
| --- | --- | --- | --- | --- | --- | --- | --- |
| c1cc2c3c(c1)[C@H]1CCC[C@H]1CN3CCNC2 [DCDQ, (9aR,12aS)-4,5,6,7,9,9a,10,11,12,12a-decahydro-cyclopenta[c][1,4]diazepine[6,7,1-ij]quinoline, reference compound] | only trace amounts | potent 5-HT2C agonist |  |  |  |  |  |
| c1cc2c3c(c1)[C@H]1CCC[C@H]1CN3CCNC2 [[^14C]DCDQ] |  |  | less than 0.1% | 21.1±2.1% | no detectable degradation | no obvious degradation | 64.3% |
